Laboratory results: US4427660A, “Formyl-methionyl chemotatic peptide antibiotic conjugates useful in treating infections” (priority 1982, dated 1984)
Where “and” joins values, the source holds several entries; their conditions need not be identical. Equal values may be shown once. Residues, ends and D or L forms follow the SMILES beside them. *: point of attachment. For = O=C*

Tests used:
[1] = test system: Pseudomonas aeruginosa ATCC 27835; assay: Kirby-Bauer disc assay, inhibitory zone size; format: cell-based; conditions: P. aeruginosa; disc FML alone; 6 mm = disc, no inhibition
Method: (§1) In these tables antimicrobial activity is expressed as inhibitory zone size as performed by the Kirby-Bauer assay.
(§2) The experiments in Tables 10-14 were performed using the following bacteria, media and experimental protocol:
(§3) The bacteria were Escherichia coli ATCC 25922 and Pseudomonas aeruginosa ATCC 27835.
(§4) The media was Trypticase soy agar (Baltimore Biological Laboratories, BBL) used as a general growth medium. Broth media was Brain heart infusion broth (BBL) for E. coli and medium 81 [trypticase soy broth without dextrose plus 1% potassium nitrate] for P. aeruginosa.
(§5) Antimicrobial susceptibility was tested on M9 medium [a glucose minimal salts medium (Miller, 1972)] solidified with 1.5% agar (Difco) for the base or 0.7% agar for overlay.
The following is the experimental protocol: Broth cultures of E. coli or P. aeruginosa were grown overnight in broth at 35° C. Cultures were diluted to visually match a 0.5 McFarland turbidity standard (Matsen and Barry, 1974); the numbers of organisms in this suspension ordinarily were .congruent.10^8 viable cells per ml. Ten microliter (ul) was inoculated into 10 ml. of 0.7% M9 agar that was melted and cooled to 46°-50° C. This was overlaid onto a 50 ml base of 1.5% M9 agar in 15 cm diameter petri dishes. […] Diameters of zones of inhibition of bacterial growth were measued with a vernier caliper and recorded to the nearest 0.1 mm.

[2] = test system: Escherichia coli ATCC 25922; assay: Kirby-Bauer disc assay, inhibitory zone size; format: cell-based; conditions: E. coli; disc FML alone; 6 mm = disc, no inhibition
Method: as §1, §2, §3, §4, §5
The following is the experimental protocol: Broth cultures of E. coli or P. aeruginosa were grown overnight in broth at 35° C. Cultures were diluted to visually match a 0.5 McFarland turbidity standard (Matsen and Barry, 1974); the numbers of organisms in this suspension ordinarily were .congruent.10^8 viable cells per ml. Ten microliter (ul) was inoculated into 10 ml. of 0.7% M9 agar that was melted and cooled to 46°-50° C. This was overlaid onto a 50 ml base of 1.5% M9 agar in 15 cm diameter petri dishes. The agar overlay was allowed to harden at room temperature for 30 min. Antimicrobial tests disks were placed on the surface of the agar, and the plates were incubated overnight at 35° C. Diameters of zones of inhibition of bacterial growth were measued with a vernier caliper and recorded to the nearest 0.1 mm.

[3] = test system: Rabbit polymorphononuclear leukocytes (neutrophils); format: cell-based; conditions: concentration giving 50 percent of maximum activity; mean of at least three experiments; 30 minutes at 37° C.
Method: Rabbit polymorphononuclear leukocytes (neutrophils) were obtained 12 to 14 hours after the intraperitoneal injection of 0.1 percent glycogen, as described in Becker et al (Z. Immunitaetsforsch Exp. Klin. Immunol., Volume 143, Page 466 1972). They were washed in Hanks' balanched salt solution containing 0.01 M tris (hydroxymethyl) aminomethane, pH 7.2, 1 mg/ml of glucose, and 1 mg/ml of crystalline bovine serum albumin. The Hanks' balanced salt solution was the buffer used throughout the work.
The assay employed a modified Boyden chamber as described by Becker et al, supra. […] The loaded chambers were incubated for 30 minutes at 37° C. This time interval was chosen as giving, for the particular batch of filters used, the greatest difference between the number of cells moving into the filter with no peptide in the lower compartment (background) and the maximum number of cells moving into the filter when stimulated by peptide. At the end of the incubation the filters were removed and stained and the number of cells in five high-power (400 magnification) fields (5 HPF) were counted and averaged. The results reported are the means of duplicate chambers.
The migration enhancing activities of different peptides were compared essentially as described by Schiffmann et al (J. Immunol., Volume […], Page 1830, 1975) and Showell et al (J. Immunol., Volume 116, Page 99, 1976). In measuring the relative activity of the peptides, a peptide was diluted so that each concentration was one quarter that of the next higher concentration. The concentrations of peptides were chosen on the basis of preliminary experiments to cover the range giving minimum to maximal activity. The chemotactic activity plotted against the logarithm of the molar concentration of peptide yielded a sigmoidal-shaped dose-response curve. Different peptides tested at the same time with the same cells gave curves which were parallel to each other in their linear portions and had the same maximum. The activities of the different peptides are reported as the ED50, i.e., the concentration of chemotactic factor giving 50 percent of the maximum activity.
The results are reported as the means ED50 ±SE (standard error) as determined by at least three separate experiments. In this assay, the lower the value of the ED50, the greater is the chemotactic activity.

[4] = test system: neutrophils; format: cell-based, rabbit; conditions: molar concentration causing 50 percent of maximal release; 10 μg/ml cytochalasin B; five minutes at 37° C.
Method: The cytochalasin B was diluted from a stock solution containing 4 mg/ml in dimethyl sulphoxide. […] The mixtures were then incubated for five minutes at 37° C. (the release is completed in one minute of less under these conditions) and the tubes centrifuged at 2500 rpm (1400 g) for five minutes at 4° C.
The total concentration of enzyme was measured by lysing the cells with buffer containing 0.1 percent Triton X-100 (Beckmann Instruments, Inc., Fullerton, Calif.). […] The lactic dehydrogenase of each supernate was measured to insure that the peptides induced no release of this cytoplasmic marker.
The lysosomal enzyme-inducing activity for each peptide was obtained from the dose-response curve as its ED50, i.e., the molar concentration of peptide causing 50 percent of the maximal release of either lysozyme or β-glucuronidase. Again, the lower the value of the ED50, the greater is the lysosomal enzyme secretion-inducing activity.

[5] = biological target: T1, surface receptor of rabbit polymorphonuclear leukocytes (Oryctolagus cuniculus, UniProt Q05394); assay: Inhibition of F-Nle-leu (3H)PHE binding to rabbit PMN; conditions: F-Nle-leu (3H)PHE, rabbit PMN
T1 construct: endogenous in cells; host or cells: rabbit polymorphonuclear leukocytes (neutrophils)
T1 sequence (Q05394 1-352): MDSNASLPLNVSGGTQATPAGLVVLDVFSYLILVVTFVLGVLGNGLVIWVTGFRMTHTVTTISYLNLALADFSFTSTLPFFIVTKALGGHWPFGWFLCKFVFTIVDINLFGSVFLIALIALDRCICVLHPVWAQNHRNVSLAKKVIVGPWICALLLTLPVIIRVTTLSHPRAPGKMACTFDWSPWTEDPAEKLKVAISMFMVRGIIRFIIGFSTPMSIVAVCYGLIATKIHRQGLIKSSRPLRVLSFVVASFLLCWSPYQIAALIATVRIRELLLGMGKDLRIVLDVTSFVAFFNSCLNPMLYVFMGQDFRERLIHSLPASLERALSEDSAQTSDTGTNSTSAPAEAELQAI

[6] = test system: 4 strains of Pseudomonas aeruginosa
Method: Antimicrobial activity was assayed by the MIC Technique using 4 strains of Pseudomonas aeruginosa.

[7] = test system: human polymorphonuclear leukocytes; assay: Chemotaxis for human polymorphonuclear leukocytes; format: cell-based; conditions: human PMN, FIG. 2 text and summary (Table 6)
[8] = test system: Pseudomonas aeruginsa, strain Mangalore; conditions: EXPT 1-3 on separate lines

CSCC[C@H](NC=O)C(=O)N[C@@H](CC(C)C)C(=O)O [f--Met--Leu--OH] (For-Met-Leu-OH)
Zone Diameter [1]: 6.0 mm
Zone Diameter [2]: 6.0 mm
Chemotactic Activity ED50 ± SE [3]: 4.0 ± 0.45 × 10^-7 M
ED50 ± SE Lysosyme [4]: 1.7 ± 0.17 × 10^-6 M

formyl-Met-Leu-phe-silver sulfadiazine [FMLP-AgSDZ]
ID50, molar concentration which displaced 50% of a labeled attractant from the cell receptor [5]: 2 nM
concentration at which all strains were inhibited (MIC Technique) [6]: 80 μm/ml
ED50, M concentration giving 50% max activity [7]: 96 nM
ED50, M concentration giving 50% max activity ([7]; listed as FMLP--AgSDZ): 78 nM
MIC at 24h [8]: 40 μg/m and 80 μg/m
